From ChEMBL document CHEMBL5385845, “Novel coumarin aminophosphonates as potential multitargeting antibacterial agents against Staphylococcus aureus” (Eur J Med Chem, 2023)
Converted amounts (≈) assume the structure as drawn.

Columns and labels:
Format in all cases: functional
Staphylococcus aureus [1] = test: Antibacterial activity against methicillin resistant Staphylococcus aureus N315 assessed as inhibition of bacterial growth
Enterococcus faecalis = test: Antibacterial activity against Enterococcus faecalis assessed as inhibition of bacterial growth
Staphylococcus aureus [2] = test: Antibacterial activity against Staphylococcus aureus assessed as inhibition of bacterial growth
Staphylococcus aureus [3] = test: Antibacterial activity against Staphylococcus aureus ATCC 25923 assessed as inhibition of bacterial growth
Staphylococcus aureus [4] = test: Antibacterial activity against Staphylococcus aureus ATCC 29213 assessed as inhibition of bacterial growth
Klebsiella pneumoniae = test: Antibacterial activity against Klebsiella pneumoniae assessed as inhibition of bacterial growth
Escherichia coli [5] = test: Antibacterial activity against Escherichia coli assessed as inhibition of bacterial growth
Pseudomonas aeruginosa [6] = test: Antibacterial activity against Pseudomonas aeruginosa assessed as inhibition of bacterial growth
Acinetobacter baumannii = test: Antibacterial activity against Acinetobacter baumannii assessed as inhibition of bacterial growth
Pseudomonas aeruginosa [7] = test: Antibacterial activity against Pseudomonas aeruginosa ATCC 27853 assessed as inhibition of bacterial growth
Escherichia coli [8] = test: Antibacterial activity against Escherichia coli ATCC 25922 assessed as inhibition of bacterial growth
Staphylococcus aureus [9] = test: Synergistic antibacterial activity against Staphylococcus aureus assessed as inhibition of bacterial growth in presence of compound 6f
Escherichia coli [10] = test: Synergistic antibacterial activity against Escherichia coli ATCC 25922 assessed as inhibition of bacterial growth in presence of compound 6f
Staphylococcus aureus [11] = test: Induction of drug resistance in Staphylococcus aureus assessed as fold increase in MIC measured for 23 passages

SMILES | MIC (Staphylococcus aureus [1]) [µg/mL] | MIC (Enterococcus faecalis) [µg/mL] | MIC (Staphylococcus aureus [2]) [µg/mL] | MIC (Staphylococcus aureus [3]) [µg/mL] | MIC (Staphylococcus aureus [4]) [µg/mL] | MIC (Klebsiella pneumoniae) [µg/mL] | MIC (Escherichia coli [5]) [µg/mL] | MIC (Pseudomonas aeruginosa [6]) [µg/mL] | MIC (Acinetobacter baumannii) [µg/mL] | MIC (Pseudomonas aeruginosa [7]) [µg/mL] | MIC (Escherichia coli [8]) [µg/mL] | MIC (Staphylococcus aureus [9]) [µg/mL] | MIC (Escherichia coli [10]) [µg/mL] | fold change (FC) (Staphylococcus aureus [11])
CCOP(=O)(OCC)C(Nc1ccc2c(C)cc(=O)oc2c1)c1cc(O)c2c(c1)C(=O)c1cccc(O)c1C2=O (stereo unspecified) | 4 (≈ 7.1 µM) | 32 (≈ 56.8 µM) | 8 (≈ 14.2 µM) | 4 (≈ 7.1 µM) | 8 (≈ 14.2 µM) | 32 (≈ 56.8 µM) | 8 (≈ 14.2 µM) | 8 (≈ 14.2 µM) | 16 (≈ 28.4 µM) | 8 (≈ 14.2 µM) | 4 (≈ 7.1 µM) | – | – | –
CCCCc1nc(Cl)c(C(Nc2ccc3c(C)cc(=O)oc3c2)P(=O)(OCC)OCC)n1Cc1ccccc1F (stereo unspecified) | 64 (≈ 108 µM) | 128 (≈ 217 µM) | 128 (≈ 217 µM) | 64 (≈ 108 µM) | 32 (≈ 54.2 µM) | 128 (≈ 217 µM) | 32 (≈ 54.2 µM) | 256 (≈ 434 µM) | 32 (≈ 54.2 µM) | 64 (≈ 108 µM) | 256 (≈ 434 µM) | – | – | –
CCOP(=O)(OCC)C(Nc1ccc2c(C)cc(=O)oc2c1)c1ccc(C(F)(F)F)cc1 (stereo unspecified) | 256 (≈ 545 µM) | 128 (≈ 273 µM) | 256 (≈ 545 µM) | 256 (≈ 545 µM) | 256 (≈ 545 µM) | 128 (≈ 273 µM) | 128 (≈ 273 µM) | 64 (≈ 136 µM) | 128 (≈ 273 µM) | 64 (≈ 136 µM) | 64 (≈ 136 µM) | – | – | –
CCOP(=O)(OCC)C(Nc1ccc2c(C)c(Cl)c(=O)oc2c1)c1cccc(O)c1 (stereo unspecified) | 32 (≈ 70.8 µM) | 64 (≈ 142 µM) | 16 (≈ 35.4 µM) | 32 (≈ 70.8 µM) | 32 (≈ 70.8 µM) | 128 (≈ 283 µM) | 128 (≈ 283 µM) | 64 (≈ 142 µM) | 32 (≈ 70.8 µM) | 128 (≈ 283 µM) | 16 (≈ 35.4 µM) | – | – | –
CCOP(=O)(OCC)C(Nc1ccc2c(C)cc(=O)oc2c1)c1ccc(Cl)cc1 (stereo unspecified) | 128 (≈ 294 µM) | 64 (≈ 147 µM) | 256 (≈ 587 µM) | 4 (≈ 9.18 µM) | 128 (≈ 294 µM) | 64 (≈ 147 µM) | 128 (≈ 294 µM) | 16 (≈ 36.7 µM) | 64 (≈ 147 µM) | 8 (≈ 18.4 µM) | 4 (≈ 9.18 µM) | – | – | –
CCn1cc(C(=O)O)c(=O)c2cc(F)c(N3CCNCC3)cc21 [NORFLOXACIN] | 4 (≈ 12.5 µM) | 8 (≈ 25.1 µM) | 16 (≈ 50.1 µM) | 8 (≈ 25.1 µM) | 16 (≈ 50.1 µM) | 1 (≈ 3.13 µM) | 8 (≈ 25.1 µM) | 4 (≈ 12.5 µM) | 8 (≈ 25.1 µM) | 4 (≈ 12.5 µM) | 16 (≈ 50.1 µM) | 4 | 8 | 32
CCCCc1nc(Cl)c(C(Nc2ccc3c(C)cc(=O)oc3c2)P(=O)(OCC)OCC)n1Cc1ccc(Cl)cc1Cl (stereo unspecified) | 128 (≈ 200 µM) | 128 (≈ 200 µM) | 64 (≈ 99.9 µM) | 32 (≈ 49.9 µM) | 128 (≈ 200 µM) | 128 (≈ 200 µM) | 64 (≈ 99.9 µM) | 64 (≈ 99.9 µM) | 128 (≈ 200 µM) | 256 (≈ 399 µM) | 128 (≈ 200 µM) | – | – | –
CCOP(=O)(OCC)C(Nc1ccc2c(C)cc(=O)oc2c1)c1ccc(O)c(OC)c1 (stereo unspecified) | 128 (≈ 286 µM) | 16 (≈ 35.8 µM) | 64 (≈ 143 µM) | 64 (≈ 143 µM) | 128 (≈ 286 µM) | 256 (≈ 572 µM) | 128 (≈ 286 µM) | 256 (≈ 572 µM) | 128 (≈ 286 µM) | 64 (≈ 143 µM) | 64 (≈ 143 µM) | – | – | –
CCCCc1nc(Cl)c(C(Nc2ccc3c(C)cc(=O)oc3c2)P(=O)(OCC)OCC)[nH]1 (stereo unspecified) | 128 (≈ 266 µM) | 64 (≈ 133 µM) | 32 (≈ 66.4 µM) | 16 (≈ 33.2 µM) | 256 (≈ 531 µM) | 128 (≈ 266 µM) | 32 (≈ 66.4 µM) | 64 (≈ 133 µM) | 128 (≈ 266 µM) | 256 (≈ 531 µM) | 64 (≈ 133 µM) | – | – | –
CCOP(=O)(OCC)C(Nc1ccc2c(C)cc(=O)oc2c1)c1ccc(C(=O)O)cc1 (stereo unspecified) | 256 (≈ 575 µM) | 128 (≈ 287 µM) | 64 (≈ 144 µM) | 128 (≈ 287 µM) | 64 (≈ 144 µM) | 64 (≈ 144 µM) | 32 (≈ 71.8 µM) | 16 (≈ 35.9 µM) | 128 (≈ 287 µM) | 64 (≈ 144 µM) | 256 (≈ 575 µM) | – | – | –
CCOP(=O)(OCC)C(Nc1ccc2c(C)cc(=O)oc2c1)c1ccc(O)c(Br)c1 (stereo unspecified) | 256 (≈ 516 µM) | 128 (≈ 258 µM) | 64 (≈ 129 µM) | 128 (≈ 258 µM) | 128 (≈ 258 µM) | 128 (≈ 258 µM) | 64 (≈ 129 µM) | 32 (≈ 64.5 µM) | 128 (≈ 258 µM) | 64 (≈ 129 µM) | 128 (≈ 258 µM) | – | – | –
CCOP(=O)(OCC)C(Nc1ccc2c(C)cc(=O)oc2c1)c1ccc(Cl)cc1Cl (stereo unspecified) | 128 (≈ 272 µM) | 64 (≈ 136 µM) | 128 (≈ 272 µM) | 128 (≈ 272 µM) | 128 (≈ 272 µM) | 64 (≈ 136 µM) | 32 (≈ 68 µM) | 128 (≈ 272 µM) | 64 (≈ 136 µM) | 64 (≈ 136 µM) | 128 (≈ 272 µM) | – | – | –
CCOP(=O)(OCC)C(Nc1ccc2c(CCl)cc(=O)oc2c1)c1cccc(O)c1 (stereo unspecified) | 64 (≈ 142 µM) | 32 (≈ 70.8 µM) | 16 (≈ 35.4 µM) | 16 (≈ 35.4 µM) | 64 (≈ 142 µM) | 128 (≈ 283 µM) | 64 (≈ 142 µM) | 128 (≈ 283 µM) | 64 (≈ 142 µM) | 32 (≈ 70.8 µM) | 8 (≈ 17.7 µM) | – | – | –
CCOP(=O)(OCC)C(Nc1ccc2c(C)cc(=O)oc2c1)c1ccc(C#N)cc1 (stereo unspecified) | 128 (≈ 300 µM) | 64 (≈ 150 µM) | 128 (≈ 300 µM) | 256 (≈ 600 µM) | 64 (≈ 150 µM) | 128 (≈ 300 µM) | 128 (≈ 300 µM) | 64 (≈ 150 µM) | 128 (≈ 300 µM) | 128 (≈ 300 µM) | 128 (≈ 300 µM) | – | – | –
CCOP(=O)(OCC)C(Nc1ccc2c(C)cc(=O)oc2c1)c1nccs1 (stereo unspecified) | 64 (≈ 157 µM) | 128 (≈ 313 µM) | 16 (≈ 39.2 µM) | 128 (≈ 313 µM) | 32 (≈ 78.4 µM) | 256 (≈ 627 µM) | 128 (≈ 313 µM) | 64 (≈ 157 µM) | 32 (≈ 78.4 µM) | 8 (≈ 19.6 µM) | 64 (≈ 157 µM) | – | – | –
CCOP(=O)(OCC)C(Nc1ccc2c(C)c(C)c(=O)oc2c1)c1cccc(O)c1 (stereo unspecified) | 128 (≈ 297 µM) | 32 (≈ 74.2 µM) | 32 (≈ 74.2 µM) | 64 (≈ 148 µM) | 16 (≈ 37.1 µM) | 64 (≈ 148 µM) | 32 (≈ 74.2 µM) | 128 (≈ 297 µM) | 256 (≈ 593 µM) | 16 (≈ 37.1 µM) | 64 (≈ 148 µM) | – | – | –
CCOP(=O)(OCC)C(Nc1cc2ccccc2oc1=O)c1cccc(O)c1 (stereo unspecified) | 32 (≈ 79.3 µM) | 16 (≈ 39.7 µM) | 8 (≈ 19.8 µM) | 8 (≈ 19.8 µM) | 32 (≈ 79.3 µM) | 128 (≈ 317 µM) | 64 (≈ 159 µM) | 32 (≈ 79.3 µM) | 16 (≈ 39.7 µM) | 4 (≈ 9.92 µM) | 32 (≈ 79.3 µM) | – | – | –
CCOP(=O)(OCC)C(Nc1ccc2c(C(F)(F)F)cc(=O)oc2c1)c1cccc(O)c1 (stereo unspecified) | 32 (≈ 67.9 µM) | 16 (≈ 33.9 µM) | 16 (≈ 33.9 µM) | 8 (≈ 17 µM) | 64 (≈ 136 µM) | 32 (≈ 67.9 µM) | 256 (≈ 543 µM) | 32 (≈ 67.9 µM) | 128 (≈ 272 µM) | 16 (≈ 33.9 µM) | 16 (≈ 33.9 µM) | – | – | –
CCOP(=O)(OCC)C(Nc1ccc2c(C)cc(=O)oc2c1)c1ccccc1F (stereo unspecified) | 64 (≈ 153 µM) | 64 (≈ 153 µM) | 16 (≈ 38.2 µM) | 64 (≈ 153 µM) | 64 (≈ 153 µM) | 128 (≈ 305 µM) | 128 (≈ 305 µM) | 256 (≈ 610 µM) | 64 (≈ 153 µM) | 32 (≈ 76.3 µM) | 64 (≈ 153 µM) | – | – | –
CCOP(=O)(OCC)C(Nc1ccc2c(C)cc(=O)oc2c1)c1ccc(O)c([N+](=O)[O-])c1 (stereo unspecified) | 256 (≈ 554 µM) | 64 (≈ 138 µM) | 32 (≈ 69.2 µM) | 64 (≈ 138 µM) | 32 (≈ 69.2 µM) | 128 (≈ 277 µM) | 64 (≈ 138 µM) | 32 (≈ 69.2 µM) | 64 (≈ 138 µM) | 128 (≈ 277 µM) | 128 (≈ 277 µM) | – | – | –
CCOP(=O)(OCC)C(Nc1ccc2c(C)cc(=O)oc2c1)c1cccc(Cl)c1O (stereo unspecified) | 64 (≈ 142 µM) | 128 (≈ 283 µM) | 32 (≈ 70.8 µM) | 64 (≈ 142 µM) | 128 (≈ 283 µM) | 128 (≈ 283 µM) | 128 (≈ 283 µM) | 16 (≈ 35.4 µM) | 128 (≈ 283 µM) | 64 (≈ 142 µM) | 64 (≈ 142 µM) | – | – | –
CCCCc1nc(Cl)c(C(Nc2ccc3c(C)cc(=O)oc3c2)P(=O)(OCC)OCC)n1Cc1ccc(F)cc1F (stereo unspecified) | 64 (≈ 105 µM) | 128 (≈ 211 µM) | 32 (≈ 52.6 µM) | 128 (≈ 211 µM) | 64 (≈ 105 µM) | 128 (≈ 211 µM) | 128 (≈ 211 µM) | 256 (≈ 421 µM) | 64 (≈ 105 µM) | 128 (≈ 211 µM) | 128 (≈ 211 µM) | – | – | –
CCCCc1nc(Cl)c(C(Nc2ccc3c(C)cc(=O)oc3c2)P(=O)(OCC)OCC)n1CO (stereo unspecified) | 2 (≈ 3.91 µM) | 128 (≈ 250 µM) | 2 (≈ 3.91 µM) | 16 (≈ 31.3 µM) | 128 (≈ 250 µM) | 16 (≈ 31.3 µM) | 128 (≈ 250 µM) | 256 (≈ 500 µM) | 64 (≈ 125 µM) | 32 (≈ 62.5 µM) | 16 (≈ 31.3 µM) | – | – | –
